Laboratory results as given in ChEMBL document CHEMBL2146430, “Rational evolution of a novel type of potent and selective proviral integration site in Moloney murine leukemia virus kinase 1 (PIM1) inhibitor from a screening-hit compound” (J Med Chem, 2012).
Values belong to the molecule of their own block, whether it stands above or below them. Active and inactive are the calls of the source. No cut-off for these calls is given here.

Key:
[1] = target: T1, Serine/threonine-protein kinase pim-1 (Homo sapiens, UniProt P11309); experiment: Inhibition of PIM1 using 5-FAM-RSRHSSYPAGT-CONH2 as substrate after 2 hrs by electrophoretic mobility shift assay
Target sequence in this assay (P11309 whole entry): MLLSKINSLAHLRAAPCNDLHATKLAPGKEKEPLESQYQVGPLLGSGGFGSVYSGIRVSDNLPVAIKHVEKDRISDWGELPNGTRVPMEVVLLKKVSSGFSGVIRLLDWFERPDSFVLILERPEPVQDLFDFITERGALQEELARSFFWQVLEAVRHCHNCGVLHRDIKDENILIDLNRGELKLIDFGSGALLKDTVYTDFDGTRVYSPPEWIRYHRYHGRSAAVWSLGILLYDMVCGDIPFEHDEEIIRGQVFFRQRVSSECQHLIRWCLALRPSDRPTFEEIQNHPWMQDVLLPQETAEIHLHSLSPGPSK

[2] = target: T1, Serine/threonine-protein kinase pim-1; conditions: MV4-11, 0.01 to 10 uM
Target sequence in this assay (P11309 whole entry, looked up): as the sequence (P11309 whole entry) above
Description: Inhibition of PIM1-mediated BAD phosphorylation at ser136 in human MV4-11 cells at 0.01 to 10 uM after 1 hr by Western blotting

[3] = target: CYP2D6 (Homo sapiens, UniProt P10635); experiment: Inhibition of CYP2D6 at 10 uM; assay type: ADME
[4] = target: Receptor-type tyrosine-protein kinase FLT3 (Homo sapiens) (UniProt P36888); experiment: Inhibition of FLT3 at 300 nM by electrophoretic mobility shift assay
Receptor-type tyrosine-protein kinase FLT3 (Homo sapiens), sequence (P36888 whole entry): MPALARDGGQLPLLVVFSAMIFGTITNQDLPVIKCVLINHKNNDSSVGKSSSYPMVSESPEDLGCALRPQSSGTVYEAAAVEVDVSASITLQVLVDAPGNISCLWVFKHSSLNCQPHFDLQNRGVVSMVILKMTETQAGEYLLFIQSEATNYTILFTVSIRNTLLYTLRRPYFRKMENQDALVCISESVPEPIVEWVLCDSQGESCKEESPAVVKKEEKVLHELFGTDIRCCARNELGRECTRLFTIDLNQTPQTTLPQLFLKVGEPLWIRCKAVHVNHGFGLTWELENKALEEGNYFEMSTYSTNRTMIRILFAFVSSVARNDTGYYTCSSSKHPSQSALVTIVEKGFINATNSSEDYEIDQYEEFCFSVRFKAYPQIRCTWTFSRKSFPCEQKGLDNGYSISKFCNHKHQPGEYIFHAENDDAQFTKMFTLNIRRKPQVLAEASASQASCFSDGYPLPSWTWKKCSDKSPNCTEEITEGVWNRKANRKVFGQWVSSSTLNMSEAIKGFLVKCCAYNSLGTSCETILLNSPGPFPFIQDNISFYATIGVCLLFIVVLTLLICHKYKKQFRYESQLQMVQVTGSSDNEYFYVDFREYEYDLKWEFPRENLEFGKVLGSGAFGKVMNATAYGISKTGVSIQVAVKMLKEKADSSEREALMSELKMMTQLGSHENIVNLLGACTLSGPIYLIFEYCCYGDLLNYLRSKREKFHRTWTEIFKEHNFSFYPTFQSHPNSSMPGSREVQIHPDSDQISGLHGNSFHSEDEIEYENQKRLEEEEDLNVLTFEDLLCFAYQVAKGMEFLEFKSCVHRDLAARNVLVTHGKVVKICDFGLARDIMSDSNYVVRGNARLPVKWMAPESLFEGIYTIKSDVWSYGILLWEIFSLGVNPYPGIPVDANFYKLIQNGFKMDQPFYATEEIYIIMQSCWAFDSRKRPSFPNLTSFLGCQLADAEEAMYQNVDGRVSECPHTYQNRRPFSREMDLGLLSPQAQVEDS

[5] = target: T1, Serine/threonine-protein kinase pim-1; conditions: 300 nM
Target sequence in this assay (P11309 whole entry, looked up): as the sequence (P11309 whole entry) above
Description: Inhibition of PIM1 at 300 nM by electrophoretic mobility shift assay

[6] = target: Receptor-type tyrosine-protein kinase FLT3 (Homo sapiens, UniProt P36888); experiment: Inhibition of FLT3 by electrophoretic mobility shift assay
[7] = Metabolic stability in mouse liver microsomes assessed as compound remaining at 1 uM after 1 hr; assay type: ADME, Microsome; conditions: read-out: Stability
[8] = target: CYP3A4 (Homo sapiens, UniProt P08684); experiment: Inhibition of CYP3A4 at 10 uM; assay type: ADME
[9] = target: CYP1A2 (Homo sapiens, UniProt P05177); experiment: Inhibition of CYP1A2 at 10 uM; assay type: ADME
[10] = target: CYP2C19 (Homo sapiens, UniProt P33261); experiment: Inhibition of CYP2C19 at 10 uM; assay type: ADME
[11] = test system: MV4-11; experiment: Induction of apoptosis in human MV4-11 cells after 48 hrs by annexin V/propidium iodide staining based flow cytometric analysis; assay type: functional, cell-based
[12] = target: T2, Serine/threonine-protein kinase pim-3 (Homo sapiens, UniProt Q86V86); experiment: Inhibition of PIM3 at 300 nM by electrophoretic mobility shift assay
[13] = test system: MV4-11; experiment: Growth inhibition of human MV4-11 cells after 48 hrs; assay type: functional; conditions: MV4-11, 48 h
[14] = target: T1, Serine/threonine-protein kinase pim-1; experiment: Inhibition of PIM1 by electrophoretic mobility shift assay
Target sequence in this assay (P11309 whole entry): as the sequence (P11309 whole entry) above

[15] = target: CYP2C9 (Homo sapiens, UniProt P11712); experiment: Inhibition of CYP2C9 at 10 uM; assay type: ADME
[16] = test system: MV4-11; experiment: Cell cycle arrest in human MV4-11 cells assessed as accumulation at G1 phase after 48 hrs by flow cytometry; assay type: functional, cell-based
[17] = target: T2, Serine/threonine-protein kinase pim-3; experiment: Inhibition of PIM3 by electrophoretic mobility shift assay
[18] = target: T3, Serine/threonine-protein kinase pim-2 (Homo sapiens, UniProt Q9P1W9); experiment: Inhibition of PIM2 at 300 nM by electrophoretic mobility shift assay
Target sequence in this assay (Q9P1W9 whole entry, looked up): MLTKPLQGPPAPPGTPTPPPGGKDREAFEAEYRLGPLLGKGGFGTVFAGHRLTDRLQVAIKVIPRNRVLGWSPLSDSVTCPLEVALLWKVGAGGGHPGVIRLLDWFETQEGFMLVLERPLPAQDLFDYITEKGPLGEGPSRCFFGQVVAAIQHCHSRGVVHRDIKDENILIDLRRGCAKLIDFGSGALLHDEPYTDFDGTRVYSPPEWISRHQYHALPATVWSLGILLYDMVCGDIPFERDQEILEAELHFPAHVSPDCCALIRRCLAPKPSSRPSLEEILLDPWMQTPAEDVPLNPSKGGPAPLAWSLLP

[19] = target: T3, Serine/threonine-protein kinase pim-2; experiment: Inhibition of PIM2 by electrophoretic mobility shift assay
[20] = target: T4, hERG (KCNH2) (Homo sapiens, UniProt Q12809); experiment: Inhibition of human ERG at 10 uM by patch clamp assay
[21] = test system: WI-38; experiment: Growth inhibition of human WI38 cells after 48 hrs; assay type: cell-based; conditions: wi-38, 48 h
[22] = Metabolic stability in human liver microsomes assessed as compound remaining at 1 uM after 1 hr; assay type: ADME, Microsome; conditions: read-out: Stability
[23] = target: T4, hERG (KCNH2); experiment: Inhibition of human ERG at 1 uM by patch clamp assay
[24] = Metabolic stability in mouse hepatocytes assessed as compound remaining at 1 uM after 2 hrs; assay type: ADME, cell-based, Hepatocyte; conditions: read-out: Stability
[25] = target: T2, Serine/threonine-protein kinase pim-3; conditions: 250 nM
Description: Inhibition of PIM3 at 250 nM by electrophoretic mobility shift assay

[26] = target: T3, Serine/threonine-protein kinase pim-2; conditions: 250 nM
Target sequence in this assay (Q9P1W9 whole entry, looked up): as the sequence (Q9P1W9 whole entry, looked up) above
Description: Inhibition of PIM2 at 250 nM by electrophoretic mobility shift assay

[27] = target: Platelet-derived growth factor receptor alpha (Homo sapiens) (UniProt P16234); experiment: Inhibition of PDGFRalpha at 200 nM by electrophoretic mobility shift assay
Platelet-derived growth factor receptor alpha (Homo sapiens), sequence (P16234 whole entry): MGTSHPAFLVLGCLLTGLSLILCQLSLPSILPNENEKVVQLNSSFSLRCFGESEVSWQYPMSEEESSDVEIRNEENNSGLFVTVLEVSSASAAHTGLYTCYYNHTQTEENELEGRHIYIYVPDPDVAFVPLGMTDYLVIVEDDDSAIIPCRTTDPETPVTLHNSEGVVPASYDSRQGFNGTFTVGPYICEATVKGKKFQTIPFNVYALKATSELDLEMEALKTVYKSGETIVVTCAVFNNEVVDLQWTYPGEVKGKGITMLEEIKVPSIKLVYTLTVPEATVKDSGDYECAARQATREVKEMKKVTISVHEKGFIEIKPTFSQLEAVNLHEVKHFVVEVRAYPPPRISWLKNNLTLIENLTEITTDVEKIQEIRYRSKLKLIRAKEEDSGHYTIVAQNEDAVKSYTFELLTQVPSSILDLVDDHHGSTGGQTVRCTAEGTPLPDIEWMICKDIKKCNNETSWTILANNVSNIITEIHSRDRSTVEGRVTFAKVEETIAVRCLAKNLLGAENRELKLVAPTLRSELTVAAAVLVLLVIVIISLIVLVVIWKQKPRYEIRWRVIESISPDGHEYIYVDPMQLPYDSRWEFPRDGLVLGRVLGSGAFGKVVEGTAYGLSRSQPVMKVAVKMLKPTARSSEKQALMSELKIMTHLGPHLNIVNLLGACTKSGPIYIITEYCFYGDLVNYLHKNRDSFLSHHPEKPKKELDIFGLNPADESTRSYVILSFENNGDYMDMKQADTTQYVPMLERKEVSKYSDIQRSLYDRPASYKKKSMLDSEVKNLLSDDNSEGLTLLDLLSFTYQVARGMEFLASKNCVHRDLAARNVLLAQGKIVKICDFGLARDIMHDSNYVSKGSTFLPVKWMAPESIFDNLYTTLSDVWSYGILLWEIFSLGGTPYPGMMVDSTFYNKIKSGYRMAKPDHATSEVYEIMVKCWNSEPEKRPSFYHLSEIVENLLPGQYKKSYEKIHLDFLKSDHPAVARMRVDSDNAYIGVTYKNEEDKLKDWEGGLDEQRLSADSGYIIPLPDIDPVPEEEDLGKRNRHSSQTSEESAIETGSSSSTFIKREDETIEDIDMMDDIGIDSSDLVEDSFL

[28] = target: T1, Serine/threonine-protein kinase pim-1; experiment: Inhibition of PIM1 at 200 nM by electrophoretic mobility shift assay
Target sequence in this assay (P11309 whole entry, looked up): as the sequence (P11309 whole entry) above

[29] = target: Death-associated protein kinase 1 (Homo sapiens) (UniProt P53355); experiment: Inhibition of DAPK1 at 200 nM by electrophoretic mobility shift assay
[30] = target: Receptor-type tyrosine-protein kinase FLT3 (Homo sapiens) (UniProt P36888); experiment: Inhibition of FLT3 at 200 nM by electrophoretic mobility shift assay
[31] = target: T3, Serine/threonine-protein kinase pim-2; experiment: Inhibition of PIM2 at 200 nM by electrophoretic mobility shift assay
Target sequence in this assay (Q9P1W9 whole entry, looked up): as the sequence (Q9P1W9 whole entry, looked up) above

[32] = target: Serine/threonine-protein kinase D2 (Homo sapiens) (UniProt Q9BZL6); experiment: Inhibition of PKD2 at 200 nM by electrophoretic mobility shift assay
[33] = target: Rho-associated protein kinase 1 (Homo sapiens) (UniProt Q13464); experiment: Inhibition of ROCK1 at 200 nM by electrophoretic mobility shift assay
[34] = target: Glycogen synthase kinase-3 beta (Homo sapiens) (UniProt P49841); experiment: Inhibition of GSK3beta at 200 nM by electrophoretic mobility shift assay
Glycogen synthase kinase-3 beta (Homo sapiens), sequence (P49841 whole entry, looked up): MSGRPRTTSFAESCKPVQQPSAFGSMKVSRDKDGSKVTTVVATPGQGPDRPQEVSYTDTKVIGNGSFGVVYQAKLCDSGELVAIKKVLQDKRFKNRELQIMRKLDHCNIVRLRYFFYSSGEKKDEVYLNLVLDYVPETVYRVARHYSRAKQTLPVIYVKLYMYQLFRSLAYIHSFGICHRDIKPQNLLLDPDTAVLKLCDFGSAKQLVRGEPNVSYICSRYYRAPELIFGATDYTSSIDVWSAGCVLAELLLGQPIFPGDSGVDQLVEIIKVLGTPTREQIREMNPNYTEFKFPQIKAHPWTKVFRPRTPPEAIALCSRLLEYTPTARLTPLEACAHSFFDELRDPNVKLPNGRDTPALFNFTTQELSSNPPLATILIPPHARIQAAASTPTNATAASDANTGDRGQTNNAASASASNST

[35] = target: Protein kinase C alpha type (Homo sapiens) (UniProt P17252); experiment: Inhibition of PKCalpha at 200 nM by electrophoretic mobility shift assay
[36] = target: T2, Serine/threonine-protein kinase pim-3; experiment: Inhibition of PIM3 at 200 nM by electrophoretic mobility shift assay
[37] = target: T3, Serine/threonine-protein kinase pim-2; experiment: Inhibition of PIM2 at 22500 nM by electrophoretic mobility shift assay
Target sequence in this assay (Q9P1W9 whole entry, looked up): as the sequence (Q9P1W9 whole entry, looked up) above

[38] = target: Epidermal growth factor receptor (Homo sapiens) (UniProt P00533); experiment: Inhibition of EGFR at 22500 nM by electrophoretic mobility shift assay
[39] = target: Vascular endothelial growth factor receptor 2 (Homo sapiens) (UniProt P35968); experiment: Inhibition of KDR at 22500 nM by electrophoretic mobility shift assay
[40] = target: Platelet-derived growth factor receptor alpha (Homo sapiens) (UniProt P16234); experiment: Inhibition of PDGFRalpha at 22500 nM by electrophoretic mobility shift assay
[41] = target: Aurora kinase A (Homo sapiens) (UniProt O14965); experiment: Inhibition of Aurora A at 22500 nM by electrophoretic mobility shift assay
[42] = target: Receptor-type tyrosine-protein kinase FLT3 (Homo sapiens) (UniProt P36888); experiment: Inhibition of FLT3 at 22500 nM by electrophoretic mobility shift assay
[43] = target: T2, Serine/threonine-protein kinase pim-3; experiment: Inhibition of PIM3 at 22500 nM by electrophoretic mobility shift assay
[44] = target: T1, Serine/threonine-protein kinase pim-1; experiment: Inhibition of PIM1 at 22500 nM by electrophoretic mobility shift assay
Target sequence in this assay (P11309 whole entry, looked up): as the sequence (P11309 whole entry) above

[45] = target: Serine/threonine-protein kinase 4 (Homo sapiens) (UniProt Q13043); experiment: Inhibition of MST1 at 22500 nM by electrophoretic mobility shift assay
Serine/threonine-protein kinase 4 (Homo sapiens), sequence (Q13043 whole entry): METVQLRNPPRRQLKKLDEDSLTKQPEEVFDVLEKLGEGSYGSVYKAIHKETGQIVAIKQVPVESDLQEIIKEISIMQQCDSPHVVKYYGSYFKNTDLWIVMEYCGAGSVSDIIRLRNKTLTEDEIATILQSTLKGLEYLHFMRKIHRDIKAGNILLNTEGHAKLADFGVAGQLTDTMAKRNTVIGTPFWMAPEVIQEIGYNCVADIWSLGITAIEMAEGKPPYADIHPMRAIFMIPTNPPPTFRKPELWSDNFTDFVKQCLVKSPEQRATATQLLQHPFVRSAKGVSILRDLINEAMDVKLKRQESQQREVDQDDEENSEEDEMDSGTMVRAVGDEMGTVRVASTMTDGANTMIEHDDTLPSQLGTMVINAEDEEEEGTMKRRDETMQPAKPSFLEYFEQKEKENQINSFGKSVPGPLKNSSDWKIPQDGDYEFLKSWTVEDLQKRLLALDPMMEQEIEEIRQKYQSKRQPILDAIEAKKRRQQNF

[46] = target: Tyrosine-protein kinase SYK (Homo sapiens) (UniProt P43405); experiment: Inhibition of SYK at 22500 nM by electrophoretic mobility shift assay
[47] = target: Glycogen synthase kinase-3 beta (Homo sapiens) (UniProt P49841); experiment: Inhibition of GSK3beta at 22500 nM by electrophoretic mobility shift assay
[48] = target: Mitogen-activated protein kinase kinase kinase 9 (Homo sapiens) (UniProt P80192); experiment: Inhibition of MLK1 at 22500 nM by ELISA
[49] = target: T2, Serine/threonine-protein kinase pim-3; experiment: Inhibition of PIM3 at 600 nM by electrophoretic mobility shift assay
[50] = target: Platelet-derived growth factor receptor alpha (Homo sapiens) (UniProt P16234); experiment: Inhibition of PDGFRalpha at 600 nM by electrophoretic mobility shift assay
[51] = target: T3, Serine/threonine-protein kinase pim-2; experiment: Inhibition of PIM2 at 600 nM by electrophoretic mobility shift assay
Target sequence in this assay (Q9P1W9 whole entry, looked up): as the sequence (Q9P1W9 whole entry, looked up) above

[52] = target: T1, Serine/threonine-protein kinase pim-1; experiment: Inhibition of PIM1 at 600 nM by electrophoretic mobility shift assay
Target sequence in this assay (P11309 whole entry, looked up): as the sequence (P11309 whole entry) above

[53] = target: Receptor-type tyrosine-protein kinase FLT3 (Homo sapiens) (UniProt P36888); experiment: Inhibition of FLT3 at 600 nM by electrophoretic mobility shift assay
[54] = target: Tyrosine-protein kinase SYK (Homo sapiens) (UniProt P43405); experiment: Inhibition of SYK at 600 nM by electrophoretic mobility shift assay

- IC50 [1]: 43 nM
SMILES: O=C1/C(=C/c2c[nH]c3ccccc23)Oc2c1ccc(OCc1ccccc1)c2CN1CCNCC1

- IC50 [1]: 53 nM
SMILES: COc1ccc2c(c1CN1CCNCC1)O/C(=C\c1c[nH]c3ccncc13)C2=O

- inhibition [2]: inactive
- inhibition at 10 µM [3]: 11%
- inhibition [4]: Active
- inhibition [5]: 99%
- IC50 [6]: 47 nM
- remaining at 1 h, 1 µM [7]: 92%
- inhibition at 10 µM [8]: 10%
- inhibition at 10 µM [9]: 33%
- inhibition at 10 µM [10]: 54%
- inhibition [12]: 98%
- GI50 [13]: 43 nM
- IC50 [14]: 6 nM
- inhibition at 10 µM [15]: < 1%
- IC50 [17]: 13 nM
- inhibition [18]: 19%
- IC50 [19]: 1160 nM
- remaining at 1 h, 1 µM [22]: > 99%
- remaining at 2 h, 1 µM [24]: 89%
- IC50 [1]: 3 nM
SMILES: COc1ccc2c(c1CN1CCNCC1)O/C(=C\c1n[nH]c3ccccc13)C2=O
- Activity [11]: Dose-dependent effect
- Activity [16]: Dose-dependent effect
- inhibition at 10 µM [20]: 60%
- Activity [21]: Non-toxic
- inhibition at 1 µM [23]: 13%

- IC50 [1]: 12 nM
SMILES: CCCOc1ccc2c(c1CN1CCNCC1)O/C(=C\c1c[nH]c3ccccc13)C2=O

- IC50 [1]: 447 nM
SMILES: COc1ccc2c(c1CN1CCNCC1)O/C(=C\c1c[nH]c3cccnc13)C2=O

- inhibition [25]: 98%
- remaining at 1 h, 1 µM [7]: 86%
- GI50 [13]: 95 nM
- remaining at 1 h, 1 µM [22]: 82%
- inhibition [26]: 30%
SMILES: COc1ccc2c(c1CN1CCNCC1)O/C(=C\c1c[nH]c3ccccc13)C2=O

- inhibition [27]: Active
- inhibition [28]: > 99%
- inhibition [30]: Active
- inhibition [31]: 39%
- inhibition [32]: Active
- inhibition [33]: Active
- inhibition [34]: Active
- inhibition [35]: Active
- inhibition [36]: 99%
- IC50 [1]: 2 nM
SMILES: COc1ccc2c(c1CN1CCNCC1)O/C(=C\c1c[nH]c3ncccc13)C2=O
- inhibition [29]: Active

- inhibition [37]: 46%
- inhibition [38]: Active
- inhibition [39]: Active
- inhibition [40]: Active
- inhibition [41]: Active
- inhibition [42]: Active
- inhibition [43]: 88%
- remaining at 1 h, 1 µM [7]: 44%
- inhibition [44]: 77%
- inhibition [45]: Active
- inhibition [46]: Active
- inhibition [47]: Active
- inhibition [48]: Active
- remaining at 1 h, 1 µM [22]: 36%
- IC50 [1]: 410 nM
SMILES: O=C1/C(=C/c2c[nH]c3ccccc23)Oc2c1ccc(O)c2CN1CCCCCC1

- IC50 [1]: 6 nM
SMILES: CCOc1ccc2c(c1CN1CCNCC1)O/C(=C\c1c[nH]c3ccccc13)C2=O

- inhibition [49]: 97%
- inhibition [50]: Active
- inhibition [51]: 30%
- inhibition [52]: 98%
- remaining at 1 h, 1 µM [7]: 71%
- inhibition [53]: Active
- inhibition [54]: Active
- GI50 [13]: 270 nM
- remaining at 1 h, 1 µM [22]: 90%
- IC50 [1]: 17 nM
SMILES: O=C1/C(=C/c2c[nH]c3ccccc23)Oc2c1ccc(O)c2CN1CCNCC1

- IC50 [1]: 388 nM
SMILES: CN1CCN(Cc2c(O)ccc3c2O/C(=C\c2c[nH]c4ccccc24)C3=O)CC1

- IC50 [1]: 102 nM
SMILES: O=C1/C(=C/c2c[nH]c3ccccc23)Oc2c1ccc(O)c2CN1CCCNCC1

- IC50 [1]: 20 nM
SMILES: O=C1/C(=C/c2c[nH]c3ccccc23)Oc2c(CN3CCNCC3)cccc21
